Results as given in patent publication EP4772514A1, “MACROCYCLIC COMPOUNDS, PREPARATION METHOD THEREFOR, AND USE THEREOF” (Genfleet Therapeutics (Shanghai) Inc., priority 2023, dated 2025).
Like-named read-outs stand apart in the source and are kept apart here.

How the values were obtained:
Assay type in all cases: cell-based
p-ERK [1] = assay: Cell p-ERK assay (HTRF, Advance ERK phospho-T202/Y204 kit) in NCI-H441 cells; conditions: NCI-H441, human non-small cell lung cancer cell strain, KRAS G12V mutation, 3 h compound incubation
In short: (§1)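 Phospho-ERK (T202/Y204) measured by HTRF in lysates of AsPC-1 (KRAS G12D) or NCI-H441 (KRAS G12V) cells after 3 h compound exposure at 37 °C in RPMI-1640 + 10% FBS, 0.1% DMSO. Inhibition normalised to DMSO and blank wells; IC50 by four-parameter fit.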

NCI-H441 cells = assay: 3D cell proliferation assay (CellTiter Glo-3D) in NCI-H441 cells; conditions: NCI-H441, human lung cancer cell strain, KRAS G12V mutation, 3D culture, 2% FBS, 5 days, read-out: H441 AP IC50
In short: (§2)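 After a 5-day exposure at 37 °C to 3.16-fold serial dilutions (final DMSO 0.1%) in 2% FBS RPMI-1640, ATP luminescence (CellTiter-Glo 3D) was read. Cells were AsPC-1 (KRAS G12D) or NCI-H441 (KRAS G12V), 800 per well; inhibition used DMSO and medium-only controls, with four-parameter curve fitting giving IC50.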

AsPC-1 cells = assay: 3D cell proliferation assay (CellTiter Glo-3D) in AsPC-1 cells; conditions: AsPC-1, human pancreatic cancer cell strain, KRAS G12D mutation, 3D culture, 2% FBS, 5 days, read-out: AsPC-1 AP IC50
In short: as §2

p-ERK [2] = assay: Cell p-ERK assay (HTRF, Advance ERK phospho-T202/Y204 kit) in AsPC-1 cells; conditions: AsPC-1, human pancreatic cancer cell strain, KRAS G12D mutation, 3 h compound incubation
In short: as §1

| IC50 (p-ERK [1]) [nM] | IC50 (NCI-H441 cells) [nM] | IC50 (AsPC-1 cells) [nM] | IC50 (p-ERK [2]) [nM] | IC50 (p-ERK [1]; Homo sapiens, NCI-H441, 3 h) [nM] | IC50 (NCI-H441 cells; Homo sapiens, NCI-H441, 120 h) [nM] | IC50 (AsPC-1 cells; ASPC1, 120 h) [nM] | IC50 (p-ERK [2]; ASPC1) [nM] | Compound |
| --- | --- | --- | --- | --- | --- | --- | --- | --- |
| 1.3 | 1.85 | 2.17 | 1.46 | – | – | – | – | CCn1c(F)c2c(c1-c1cc(N3CCN(C)CC3)cnc1C(C)OC)CC(C)(C)COC(=O)C1CCCN(N1)C(=O)C(NC(=O)C1C(C)C1C)Cc1nc(cs1)C=C2 [Compound Z75, (1r,2S,3R)-N-((4^2Z,8^3R,2E,6R)-1^1-ethyl-1^2-fluoro-1^5-(2-((S)-1-methoxyethyl)-5-(4-methylpiperazin-1-yl)pyridin-3-yl)-12,12-dimethyl-7,9-dioxo-8^1,8^2,8^3,8^4,8^5,8^6-hexahydro-1^1H-10-oxa-4(4,2)-thiazola-8(1,3)-pyridazina-1(3,4)-pyrrolacyclotridecaphan-2-en-6-yl)-2,3-dimethylcyclopropane-1-carboxamide] |
| – | – | – | – | 1.81 | 1.45 | 2.39 | 2.29 | CCn1nc2c(c1-c1cc(C#CCN3CCC(C#N)(CN)CC3)cnc1[C@H](C)OC)CC(C)(C)COC(=O)[C@@H]1CCCN(N1)C(=O)[C@@H](NC(=O)[C@H]1[C@H](C)[C@@H]1C)Cc1nc(cs1)/C=C/2 [Compound Z119] |
| 98.6 | 62.7 | 64.3 | 103 | – | – | – | – | (1r,2R,3S)-N-((4^2Z,8^3R,2E,6R)-1^1-ethyl-(Sa)-1^5-(2-((S)-1-methoxyethyl)-5-(4-methylpiperazin-1-yl)pyridin-3-yl)-12,12-dimethyl-7,9-dioxo-8^1,8^2,8^3,8^4,8^5,8^6-hexahydro-1^1H-10-oxa-4(4,2)-thiazola-8(1,3)-pyridazina-1(3,4)-pyrrolacyclotridecaphan-2-en-6-yl)-2,3-dimethylcyclopropane-1-carboxamide [Compound Z8-1] |
